Assay results: patent publication US20240287133A1, “PEPTIDE HAVING ACTIVITY OF PREVENTING HAIR LOSS OR PROMOTING HAIR GROWTH, AND USE THEREOF” (CAREGEN CO., LTD., priority 2021, published 2024)

What was measured:
Assay type in all cases: cell-based, human
HHFDPC = test: MTT proliferation of dermal papilla cells; conditions: peptide 500 nM, 5 μM, 50 μM, 72 hours, vs untreated control, FIG. 1
Experimental: While culturing human hair follicle dermal dermal papilla cells (HHFDPC), the absorbance was measured after treatment with the peptide of the present invention to confirm whether there was an effect of promoting the proliferation of the HHFDPC dermal papilla cells.
Specifically, HHFDPC (Sciencell, USA) was seeded at 4×10^3 cells/well in a 96-well culture plate, cultured in MSC complete medium (mesenchymal stem cell complete media, Sciencell, USA) for 24 hours, and then the medium was replaced with serum free MSC complete medium and cultured for another 24 hours. Then, the HHFDPC was treated with the peptide of SEQ ID NO: 1 prepared in the Preparation Example at concentrations of 500 nM, 5 µM, and 50 μM, respectively, and cultured at 37° C. for 72 hours. As a positive control, minoxidil was treated at a concentration of 1 μM, and as a negative control, HHFDPC without any treatment was used. Then, 10 ? of 5 mg/mL MTT solution was added and cultured in a 37° C. CO2 incubator for 4 hours to stain the cells. After removing the medium, the cells were treated with 100 μl of DMSO and shaken for 10 minutes, and the number of HHFDPC cells was confirmed by measuring absorbance at a wavelength of 540 nm using a spectrophotometer.

p-AKT = test: Western blotting of phosphorylated AKT in HHFDPC; conditions: peptide 500 nM, 5 μM, 50 μM, 24 hours, vs control not treated with the peptide, FIG. 2
Experimental: (§1) First, phosphorylated forms of AKT and ERK, which act as signaling molecules related to the proliferation of HHFDPC, were confirmed through Western blotting. Specifically, HHFDPC as in [Experiment Example 1-1] above was seeded at 4×10^5 cells/well in a 6-well culture plate, cultured in MSC complete medium (mesenchymal stem cell complete media) for 24 hours, and then the medium was replaced with serum free MSC complete medium and cultured for another 24 hours. Then, the HHFDPC was treated with the peptide of SEQ ID NO: 1 prepared in the Preparation Example at concentrations of 500 nM, 5 μM, and 50 µM, respectively, and cultured at 37° C. for 24 hours. As a positive control, minoxidil was treated at a concentration of 1 μM, and as a negative control, HHFDPC without any treatment was used. Then, Western blotting was performed to detect phosphorylated AKT and phosphorylated ERK. After washing with PBS, the cells were treated with 100 ? of lysis buffer to destroy cells, thereby obtaining cell lysate. After electrophoresis using a 10% SDS-PAGE gel, it was transferred to a PVDF membrane and blocked using 5% skim milk at room temperature for 30 minutes. […] After washing again with 0.1% PBS-T (0.1% Tween-20 in PBS) three times for 15 minutes each, p-AKT and p-ERK were detected by treatment with ECL solution (GE Healthcare, USA).

p-ERK = test: Western blotting of phosphorylated ERK in HHFDPC; conditions: peptide 500 nM, 5 μM, 50 μM, 24 hours, vs control not treated with the peptide, FIG. 2
Experimental: as §1

β-catenin = test: Western blotting of β-catenin moved into the nucleus of HHFDPC; conditions: HHFDPC nuclear protein, peptide 500 nM, 5 μM, 50 μM, 24 hours, vs control, FIG. 3
Experimental: In addition, in addition to p-AKT and p-ERK, in order to confirm the activation of β-catenin, which is known to affect cell proliferation and differentiation, whether β-catenin moved into the nucleus was confirmed through Western blotting. Specifically, the HHFDPC as in [Experiment Example 1-1] was seeded in a 6-well culture plate at an amount of 4×10^5 cells/well, cultured in MSC complete medium (mesenchymal stem cell complete media) for 24 hours. Next, the medium was replaced with serum free MSC complete medium and cultured again for 24 hours. Then, the HHFDPC was treated with the peptide of SEQ ID NO: 1 prepared in the Preparation Example at concentrations of 500 nM, […], and 50 μM, respectively, and cultured at 37° C. for 24 hours. As a positive control, minoxidil was treated at a concentration of 1 μM, and as a negative control, HHFDPC without any treatment was used. After washing with PBS, proteins in the nucleus were isolated using a nuclear protein extraction kit (Thermo scientific, USA). After electrophoresis using a 10% SDS-PAGE gel, it was transferred to a PVDF membrane and blocked using 5% skim milk at room temperature for 30 minutes. […] After washing again with 0.1% PBS-T (0.1% Tween-20 in PBS) three times for 15 minutes each, β-catenin was detected by treatment with ECL solution (GE Healthcare, USA).

LEF-1 = test: RT-PCR of LEF-1 in HHFDPC; conditions: peptide 500 nM, 5 μM, 50 μM, 24 hours, vs control without treatment, FIG. 4
Experimental: (§2) Furthermore, in order to determine whether the β-catenin moves to the nucleus and is activated to affect proliferation and differentiation, whether the expression of LEF-1, c-Myc and cyclin D1 (cyclin D1), which act as downstream factors, increases with β-catenin activation was confirmed through RT-PCR. Specifically, in the same manner as the previous Western blotting experiment, HHFDPC cells were cultured, treated with the peptides of the Preparation Example of the present invention at concentrations of 500 nM, 5 μM, and 50 μM, respectively, and cultured at 37° C. for 24 hours. After washing the cells with PBS, RNA was isolated by treating them with 300 […] of easy blue (intron, Korea). Then, CDNA was synthesized using a cDNA synthesis kit (enzynomics, Korea) by quantifying it with nano drop, and PCR was performed using primers for LEF-1, c-Myc and cyclin D1 (base sequences of the primers are listed in Table 2 below) and PCR premix (enzynomics, Korea). Electrophoresis was performed on a 1.5% agarose gel, and then the mRNA of LEF-1 and cyclin D1 was detected using a band analysis system (Bio-Rad gel image system).

c-Myc = test: RT-PCR of c-Myc in HHFDPC; conditions: peptide 500 nM, 5 μM, 50 μM, 24 hours, vs control without treatment, FIG. 4
Experimental: as §2

cyclin D1 = test: RT-PCR of cyclin D1 in HHFDPC; conditions: peptide 500 nM, 5 μM, 50 μM, 24 hours, vs control without treatment, FIG. 4
Experimental: as §2

DKK-1 protein = test: Western blotting of DKK-1 protein in DHT-treated HHFDPC; conditions: HHFDPC with DHT 100 nM, peptide 500 nM, 5 μM, 50 μM, 24 hours, vs negative control (DHT only), FIG. 5
Experimental: DKK-1 protein (dickkopf-related protein 1) is a hair loss-related protein known to be highly expressed in individuals with hair loss, especially male pattern hair loss, and its expression is known to be promoted by hormones such as DHT (Dihydrotestosterone). Accordingly, the expression of DKK-1 protein was induced by treating HHFDPC cells with DHT together with the peptide according to the Preparation Example of the present invention, and then the expression level of DKK-1 was measured through Western blotting to determine whether there was an effect of suppressing the expression of DKK-1 protein.
Specifically, HHFDPC as in [Experiment Example 1-1] was seeded in a 6-well culture plate at 4×10^5 cells/well and then cultured in MSC complete medium (mesenchymal stem cell complete media) for 24 hours. Next, the medium was replaced with serum free MSC complete medium and cultured again for 24 hours. In addition, the HHFDPC was treated with the peptide of SEQ ID NO: 1 prepared in Preparation Example at concentrations of 500 nM, 5 μM, and 50 μM, respectively, and at this time, DHT, an expression inducer of DKK-1 protein, was simultaneously treated at a concentration of 100 nM and then cultured at 37° C. for 24 hours. […] After washing again with 0.1% PBS-T (0.1% Tween-20 in PBS) three times for 15 minutes each, DKK-1 protein was detected by treatment with ECL solution (GE Healthcare, USA).

Ha3-II = test: RT-PCR of Ha3-II in HHORSC; conditions: peptide 500 nM, 5 μM, 50 μM, 72 hours, vs control without treatment, FIG. 6
Experimental: (§3) Specifically, HHORSC (human hair outer root sheath cell, Sciencell, USA) was seeded in a 6-well culture plate at 4×10^5 cells/well and then cultured in MSC complete medium (mesenchymal stem cell complete media) for 24 hours. Next, the medium was replaced with serum free MSC complete medium and cultured again for 24 hours. Then, the HHORSC was treated with the peptide of Preparation Example consisting of amino acid sequence of SEQ ID NO: 1 at concentrations of 500 nM, 5 μM, and 50 μM, respectively, and cultured at 37° C. for 72 hours. As a positive control, EGF was treated at a concentration of 50 nM, and as a negative control, HHORSC without any treatment was used. After washing with PBS, RNA was isolated by treating with 300 ? of easy blue (intron, Korea). Then, CDNA was synthesized using a cDNA synthesis kit (enzynomics, Korea) by quantification using nano drop, and PCR was performed using primer for Ha3-II, Keratin 14, and Keratin 19 (the base sequences of primer are listed in Table 3 below) and PCR premix (enzynomics, Korea). Electrophoresis was performed on a 1.5% agarose gel, and the mRNAs of Ha3-II, Keratin 14, and Keratin 19 were detected using a band analysis system (Bio-Rad gel image system).

Keratin 14 = test: RT-PCR of Keratin 14 in HHORSC; conditions: peptide 500 nM, 5 μM, 50 μM, 72 hours, vs control without treatment, FIG. 6
Experimental: as §3

Keratin 19 = test: RT-PCR of Keratin 19 in HHORSC; conditions: peptide 500 nM, 5 μM, 50 μM, 72 hours, vs control without treatment, FIG. 6
Experimental: as §3

MSX2 = test: RT-PCR of MSX2 in HHGMC; conditions: peptide 500 nM, 5 μM, 50 μM, 72 hours, vs untreated control, FIG. 7
Experimental: Specifically, HHGMC (human hair germinal matrix cell, Sciencell, USA) was seeded in a 6-well culture plate at 4×10^5 cells/well and then cultured in MSC complete medium (mesenchymal stem cell complete media) for 24 hours. Next, the medium was replaced with serum free MSC complete medium and cultured again for 24 hours. Then, the HHGMC was treated with the peptide of SEQ ID NO: 1 prepared in the Preparation Example at concentrations of 500 nM, 5 μM, and 50 µM, respectively, and cultured at 37° C. for 72 hours. As a positive control, EGF was treated at a concentration of 50 nM, and as a negative control, HHGMC without any treatment was used. After washing with PBS, RNA was isolated by treating with 300 ? of easy blue (intron, Korea). Next, cDNA was synthesized using a cDNA synthesis kit (enzynomics, Korea) by quantification using nano drop, and PCR was performed using primers for MSX2 (base sequences of primers are listed in Table 4 below) and PCR premix (enzynomics, Korea). Electrophoresis was performed on a 1.5% agarose gel, and MSX2 mRNA was detected using a band analysis system (Bio-Rad gel image system).

Sequence: CPRHENPVC [the peptide of the present invention]
- proliferation of HHFDPC (absorbance at 540 nm, MTT) (HHFDPC): the proliferation of HHFDPC was promoted
- p-AKT phosphorylation (p-AKT): phosphorylation was found to be increased
- p-ERK phosphorylation (p-ERK): phosphorylation was found to be increased
- β-catenin moved into the nucleus (β-catenin): migration due to activation of β-catenin increased
- LEF-1 mRNA (LEF-1): the amount of mRNA increased further
- c-Myc mRNA (c-Myc): the amount of mRNA increased further
- cyclin D1 mRNA (cyclin D1): the amount of mRNA increased further
- amount of DKK-1 protein (DKK-1 protein): the amount of DKK-1 protein was found to be reduced
- Ha3-II mRNA (Ha3-II): the amount of mRNA increased further
- Keratin 14 mRNA (Keratin 14): the amount of mRNA increased further
- Keratin 19 mRNA (Keratin 19): the amount of mRNA increased further
- MSX2 mRNA (MSX2): the amount of mRNA increased further
